From patent US20260356860A1, “2-SUBSTITUTED 3,4A,5,7,8,8A-HEXAHYDRO-4H-THIOPYRANO[4,3-DJPYRIMIDIN-4-ONES FOR WOUND TREATMENT” (priority 2022, published 2026)
pIC50: −log10 of the molar value.

Columns and labels:
[1] = tested on: HEK293 SuperTOPFlash reporter cells, Wnt promoter; assay: HEK CELL Wnt Assay (luciferase reporter); type: cell-based; conditions: serial dilutions, with or without 50 ng/mL Wnt3a; 18 h
Method: In order to determine the effect of the compounds of Formula (I) on Wnt inhibition, an in vitro assay using HEK293 SuperTOPFlash reporter cells, with the Wnt promoter driving a luciferase reporter gene, were utilized. 40,000 HEK293 SuperTOPFlash reporter cells were seeded, per well, in a 48 well plate for 24 hours, prior to administration of serial dilutions of the compound of Formula (I) to individual wells. Serial dilutions ranging from […] to 1 nM of the compound of Formula (I) were added with or without 50 ng/mL Wnt3a (Time Biosciences) and allowed to incubate with the reporter cells for 18 hours. Reporter cells with no treatment were used as negative control.

Tankyrase 2 (TNKS2) = target: T1, Tankyrase 2 (TNKS2) (Homo sapiens, UniProt Q9H2K2); assay: TNK2 Binding Assay (Tankyrase 2 ribosylation, chemiluminescence); type: biochemical
T1 sequence (Q9H2K2 1-1166): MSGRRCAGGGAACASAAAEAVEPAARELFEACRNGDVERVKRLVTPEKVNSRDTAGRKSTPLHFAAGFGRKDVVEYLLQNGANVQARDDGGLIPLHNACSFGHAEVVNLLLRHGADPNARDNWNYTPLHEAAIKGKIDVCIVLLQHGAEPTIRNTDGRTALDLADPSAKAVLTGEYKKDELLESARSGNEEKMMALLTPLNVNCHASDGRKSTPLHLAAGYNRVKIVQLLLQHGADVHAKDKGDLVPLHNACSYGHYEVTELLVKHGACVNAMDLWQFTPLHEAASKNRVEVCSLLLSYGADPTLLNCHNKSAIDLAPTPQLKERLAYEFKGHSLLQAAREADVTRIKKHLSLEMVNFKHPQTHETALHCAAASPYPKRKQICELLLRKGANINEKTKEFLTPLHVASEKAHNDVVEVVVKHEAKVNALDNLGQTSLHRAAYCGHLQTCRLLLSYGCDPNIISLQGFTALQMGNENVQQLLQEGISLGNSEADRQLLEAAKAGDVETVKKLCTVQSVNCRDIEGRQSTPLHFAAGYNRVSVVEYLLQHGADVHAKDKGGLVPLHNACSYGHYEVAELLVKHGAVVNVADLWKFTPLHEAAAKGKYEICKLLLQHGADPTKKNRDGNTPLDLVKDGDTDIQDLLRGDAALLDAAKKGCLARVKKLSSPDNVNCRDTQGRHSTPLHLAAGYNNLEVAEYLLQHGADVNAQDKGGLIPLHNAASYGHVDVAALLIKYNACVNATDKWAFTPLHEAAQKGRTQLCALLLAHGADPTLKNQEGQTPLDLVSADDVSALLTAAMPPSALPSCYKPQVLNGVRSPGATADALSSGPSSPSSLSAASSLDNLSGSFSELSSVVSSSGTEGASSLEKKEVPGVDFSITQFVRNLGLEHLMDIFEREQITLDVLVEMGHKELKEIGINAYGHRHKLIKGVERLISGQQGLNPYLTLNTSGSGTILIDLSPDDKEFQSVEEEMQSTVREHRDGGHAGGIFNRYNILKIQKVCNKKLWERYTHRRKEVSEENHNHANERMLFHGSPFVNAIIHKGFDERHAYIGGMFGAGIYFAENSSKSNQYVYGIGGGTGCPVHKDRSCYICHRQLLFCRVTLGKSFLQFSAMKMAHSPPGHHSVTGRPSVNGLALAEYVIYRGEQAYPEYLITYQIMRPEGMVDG
Method: Tankyrase 2 assay (n=3) was performed with the following steps: step 1, coating a 96-well plate with 50 μL/well of histone solution; step 2, conducting ribosylation reaction; and step 3, detection.
Step 1: Coating a 96-Well Plate with 50 μL/Well of Histone Solution.
A 5× histone mixture was diluted 1:5 with PBS to make a 1× histone in PBS mixture. 50 μL of the histone mixture was added to each well and incubated at 4° C. overnight. The plate was washed three times using 200 μL PBST buffer (1×PBS containing 0.05% Tween*20 (polysorbate 20) per well. The plate was tapped onto a clean paper towel to remove the liquid. The wells were blocked by adding 200 μL of blocking buffer 3 to each well. The plate was incubated at room temperature for at least 90 minutes. The plate was washed three times with 200 μL PBST buffer. The plate was tapped onto a clean paper towel to remove the liquid.
A fresh solution of 10 mM DTT in water was prepared.
A master mix was prepared and delivered to each well (25 μL/well). Master mix delivered to each well: (2.5 μL of 10×PARP assay buffer (purchased from BPS Bioscience)+2.5 μL of PARP substrate mixture 2+17.5 μL of water+2.5 μL of 10 mM fresh DTT). The concentration of DTT in the master mix was 1 mM. 25 μL of master mix was added to each well.
1×PARP buffer with DTT was prepared. 10×PARP assay buffer was diluted to 1×PARP assay buffer containing DTT by adding 1 volume of 10×PARP assay buffer+1 volume of 10 mM DTT+8 volumes of water. The concentration of DTT in the 1×PARP assay buffer was 1 mM.
5 μL of a test inhibitor was added to each well labeled as “Test Inhibitor.” For the “Positive Control,” the PARP inhibitor, XAV939, was used. For the negative control, no inhibitor is added to the assay mix.
The Tankyrase 2 (TNKS2) enzyme on ice was thawed. The tube containing the enzyme was spun briefly to recover the full content of the tube. The amount of TNKS2 enzyme required for the assay was calculated and the enzyme was diluted to 0.5 ng/μL with 1×PARP assay buffer with DTT. 16) The final concentration of TNKS2 enzyme in the assay was 2 nM. The reaction was initiated by adding 10 μL of diluted TNKS2 enzyme to each well designated “Positive Control” and “Test Inhibitor.” To each well designated as “Blank,” 10 μL of 1×PARP assay buffer with DTT was added. The plate was incubated at room temperature for 1 hour. The plate was washed three times with 100 μL of PBST buffer and the plate was tapped onto a clean paper towel.
1) Streptavidin-HRP was diluted 1:50 in Blocking buffer (purchased from BPS Bioscience) 3.50 μL of diluted Streptavidin-RP was added to each well and incubated for 30 minutes at room temperature. The plate was washed three times with 100 μL of PBST buffer and tapped onto a clean paper towel. Just before use, 1 volume of ELISA ECL Substrate A and 1 volume of ELISA ECL Substrate B were mixed on ice; and 100 μL was added to each well. Immediately, the plate was read in a luminometer or microtiter-plate reader capable of reading chemiluminescence. The “Blank” value was subtracted from all other values.

| Structure (SMILES) | pIC50 [1] | pIC50 (Tankyrase 2 (TNKS2)) |
| --- | --- | --- |
| O=c1[nH]c(-c2c(F)cc(-c3ccc(B(O)O)cc3)cc2F)nc2c1CSCC2 [Compound 25, (3′,5′-difluoro-4′-(4-oxo-3,5,7,8-tetrahydro-4H-thiopyrano[4,3-d]pyrimidin-2-yl)-[1,1′-biphenyl]-4-yl)boronic acid] | 5.60 | 7.20 |
| O=c1[nH]c(-c2ccc(-c3ccc(B(O)O)cc3)cc2O)nc2c1CSCC2 [Compound 26, (3′-hydroxy-4′-(4-oxo-3,5,7,8-tetrahydro-4H-thiopyrano[4,3-d]pyrimidin-2-yl)-[1,1′-biphenyl]-4-yl)boronic acid] | 6.19 | 7.62 |
| O=c1[nH]c(-c2ccc(-c3ccc(B(O)O)c(O)c3)cc2)nc2c1CSCC2 [Compound 27, (3-hydroxy-4′-(4-oxo-3,5,7,8-tetrahydro-4H-thiopyrano[4,3-d]pyrimidin-2-yl)-[1,1′-biphenyl]-4-yl)boronic acid] | 7.44 | 8.70 |
| O=c1[nH]c(-c2ccc(-c3ccc(B(O)O)cc3O)cc2)nc2c1CSCC2 [Compound 28, (2-hydroxy-4′-(4-oxo-3,5,7,8-tetrahydro-4H-thiopyrano[4,3-d]pyrimidin-2-yl)-[1,1′-biphenyl]-4-yl)boronic acid] | 8.70 | 8.70 |
| COC(=O)NCCOC(C)(C)c1ccc(-c2ccc(-c3nc4c(c(=O)[nH]3)CSCC4)cc2)cc1 [Compound 29, methyl (2-((2-(4′-(4-oxo-3,5,7,8-tetrahydro-4H-thiopyrano[4,3-d]pyrimidin-2-yl)-[1,1′-biphenyl]-4-yl)propan-2-yl)oxy)ethyl)carbamate] | 7.00 | 9.00 |
